The source of these data is patent US20230123334A1, “AMINO LIPID COMPOUND, PREPARATION METHOD THEREFOR, AND APPLICATION THEREOF” (SHENZHEN SHENXIN BIOTECHNOLOGY CO., LTD., priority 2020, published 2023).

The assay concerns HEK293 cells. Description: Preliminary screening as DNA vectors, GFP transfection of HEK293 cells. It is filed as cell-based. The settings on record: amino lipid/DOPE liposome with 75 ng plasmid DNA (psin-EGFP-IRES-Puro); number of GFP-expressing cells divided by total nuclei (Hoechst). In a few lines: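 First, amino lipid and DOPE were vortexed in sodium acetate buffer (pH 5.6) to form liposomes. Next, these were held with 75 ng EGFP plasmid at room temperature for 30 min. Finally, HEK293 cells were added, cultured at 37° C., Hoechst-stained, and GFP+/total nuclei scored by imaging.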

Molecules are shown by their SMILES.

As for `CCCCCCCCCCCCCCCCCCSc1nc(NCCCCCC)nc(NCCN2CCOCC2)n1` [S18N6 D2], the “Absolute DNA transfection efficiency in HEK293 cells” value (from here on “Absolute DNA transfection efficiency”) is given as 5.9%.

Consider `CCCCCCCCCCCCCCCCCCSc1nc(NCCCCCC)nc(NCCN2CCCC2)n1` [S18N6 D3], for which the “Absolute DNA transfection efficiency” value is listed as 22.1%.

Take `CCCCCCCCCCCCCCCCCCSc1nc(NCCCCCC)nc(NCCN2CCCCC2)n1` [S18N6 D4]: the “Absolute DNA transfection efficiency” value was 7.2%.

Take `CCCCCCCCCCCCCCCCCCSc1nc(NCCCCCC)nc(NCCN2CCN(C)CC2)n1` [S18N6 D5]: the “Absolute DNA transfection efficiency” value stood at 18.1%.

`CCCCCCCCCCCCCCCCCCSc1nc(NCCCCCC)nc(NCCCN(C)C)n1` [S18N6 D6]: the “Absolute DNA transfection efficiency” value is 14.5%.

`CCCCCCCCCCCCCCCCCCSc1nc(NCCCCCC)nc(NCCN(CC)CC)n1` [S18N6 D7]: the “Absolute DNA transfection efficiency” value is 10.4%.

On to `CCCCCCCCCCCCCCCCCCSc1nc(NCCCCCC)nc(NCCCN2CCOCC2)n1` [S18N6 D8], for which the “Absolute DNA transfection efficiency” value stood at 5.5%.

Take `CCCCCCCCCCCCCCCCCCSc1nc(NCCCCCC)nc(NCCCN2CCN(C)CC2)n1` [S18N6 D9]: the “Absolute DNA transfection efficiency” value is recorded as 11.0%.

Consider `CCCCCCCCCCCCCCCCCCSc1nc(NCCCCCC)nc(NCC2CCN(C)CC2)n1` [S18N6 D10], for which the “Absolute DNA transfection efficiency” value turned out to be 8.9%.

With `CCCCCCCCCCCCCCCCCCSc1nc(NCCCCCCC)nc(NCCN(C)C)n1` [S18N7 D1], the “Absolute DNA transfection efficiency” value is 6.8%.

As to `CCCCCCCCCCCCCCCCCCSc1nc(NCCCCCCC)nc(NCCN2CCOCC2)n1` [S18N7 D2], the “Absolute DNA transfection efficiency” value was found to be 3.2%.

As for `CCCCCCCCCCCCCCCCCCSc1nc(NCCCCCCC)nc(NCCN2CCCC2)n1` [S18N7 D3], the “Absolute DNA transfection efficiency” value is given as 15.6%.

For `CCCCCCCCCCCCCCCCCCSc1nc(NCCCCCCC)nc(NCCN2CCCCC2)n1` [S18N7 D4], the “Absolute DNA transfection efficiency” value is 3.5%.

Consider `CCCCCCCCCCCCCCCCCCSc1nc(NCCCCCCC)nc(NCCN2CCN(C)CC2)n1` [S18N7 D5], for which the “Absolute DNA transfection efficiency” value was 28.2%.

On to `CCCCCCCCCCCCCCCCCCSc1nc(NCCCCCCC)nc(NCCCN(C)C)n1` [S18N7 D6], for which the “Absolute DNA transfection efficiency” value turned out to be 20.7%.

On to `CCCCCCCCCCCCCCCCCCSc1nc(NCCCCCCC)nc(NCCN(CC)CC)n1` [S18N7 D7], for which the “Absolute DNA transfection efficiency” value was determined as 4.5%.

With `CCCCCCCCCCCCCCCCCCSc1nc(NCCCCCCC)nc(NCCCN2CCOCC2)n1` [S18N7 D8], the “Absolute DNA transfection efficiency” value stood at 3.9%.

Take `CCCCCCCCCCCCCCCCCCSc1nc(NCCCCCCC)nc(NCCCN2CCN(C)CC2)n1` [S18N7 D9]: the “Absolute DNA transfection efficiency” value was determined as 9.3%.

For the molecule `CCCCCCCCCCCCCCCCCCSc1nc(NCCCCCCC)nc(NCC2CCN(C)CC2)n1` [S18N7 D10], the “Absolute DNA transfection efficiency” value is listed as 13.5%.

Take `CCCCCCCCCCCCCCCCCCSc1nc(NCCCCCCCC)nc(NCCN(C)C)n1` [S18N8 D1]: the “Absolute DNA transfection efficiency” value is on record as 4.1%.

Take `CCCCCCCCCCCCCCCCCCSc1nc(NCCCCCCCC)nc(NCCN2CCOCC2)n1` [S18N8 D2]: the “Absolute DNA transfection efficiency” value is recorded as 3.8%.

As for `CCCCCCCCCCCCCCCCCCSc1nc(NCCCCCCCC)nc(NCCN2CCCC2)n1` [S18N8 D3], the “Absolute DNA transfection efficiency” value is given as 9.6%.

As to `CCCCCCCCCCCCCCCCCCSc1nc(NCCCCCCCC)nc(NCCN2CCCCC2)n1` [S18N8 D4], the “Absolute DNA transfection efficiency” value is recorded as 3.9%.

Consider `CCCCCCCCCCCCCCCCCCSc1nc(NCCCCCCCC)nc(NCCN2CCN(C)CC2)n1` [S18N8 D5], for which the “Absolute DNA transfection efficiency” value is on record as 13.6%.

With `CCCCCCCCCCCCCCCCCCSc1nc(NCCCCCCCC)nc(NCCCN(C)C)n1` [S18N8 D6], the “Absolute DNA transfection efficiency” value is reported as 23.0%.

As for `CCCCCCCCCCCCCCCCCCSc1nc(NCCCCCCCC)nc(NCCN(CC)CC)n1` [S18N8 D7], the “Absolute DNA transfection efficiency” value is reported as 6.7%.

On to `CCCCCCCCCCCCCCCCCCSc1nc(NCCCCCCCC)nc(NCCCN2CCOCC2)n1` [S18N8 D8], for which the “Absolute DNA transfection efficiency” value turned out to be 2.0%.

Regarding `CCCCCCCCCCCCCCCCCCSc1nc(NCCCCCCCC)nc(NCCCN2CCN(C)CC2)n1` [S18N8 D9], the “Absolute DNA transfection efficiency” value amounted to 6.6%.

For `CCCCCCCCCCCCCCCCCCSc1nc(NCCCCCCCC)nc(NCC2CCN(C)CC2)n1` [S18N8 D10], the “Absolute DNA transfection efficiency” value is listed as 11.7%.

Consider `CCCCCCCCCCCCCCCCCCSc1nc(NCCCCCCCCC)nc(NCCN(C)C)n1` [S18N9 D1], for which the “Absolute DNA transfection efficiency” value worked out at 5.3%.

With `CCCCCCCCCCCCCCCCCCSc1nc(NCCCCCCCCC)nc(NCCN2CCOCC2)n1` [S18N9 D2], the “Absolute DNA transfection efficiency” value is listed as 3.4%.

Regarding `CCCCCCCCCCCCCCCCCCSc1nc(NCCCCCCCCC)nc(NCCN2CCCC2)n1` [S18N9 D3], the “Absolute DNA transfection efficiency” value is 20.4%.

For `CCCCCCCCCCCCCCCCCCSc1nc(NCCCCCCCCC)nc(NCCN2CCCCC2)n1` [S18N9 D4], the “Absolute DNA transfection efficiency” value came out at 4.0%.

Consider `CCCCCCCCCCCCCCCCCCSc1nc(NCCCCCCCCC)nc(NCCN2CCN(C)CC2)n1` [S18N9 D5], for which the “Absolute DNA transfection efficiency” value is 7.7%.

Turning to `CCCCCCCCCCCCCCCCCCSc1nc(NCCCCCCCCC)nc(NCCCN(C)C)n1` [S18N9 D6], the “Absolute DNA transfection efficiency” value came to 19.5%.

Regarding `CCCCCCCCCCCCCCCCCCSc1nc(NCCCCCCCCC)nc(NCCN(CC)CC)n1` [S18N9 D7], the “Absolute DNA transfection efficiency” value turned out to be 6.7%.

For the molecule `CCCCCCCCCCCCCCCCCCSc1nc(NCCCCCCCCC)nc(NCCCN2CCOCC2)n1` [S18N9 D8], the “Absolute DNA transfection efficiency” value is reported as 3.0%.

For the molecule `CCCCCCCCCCCCCCCCCCSc1nc(NCCCCCCCCC)nc(NCCCN2CCN(C)CC2)n1` [S18N9 D9], the “Absolute DNA transfection efficiency” value is recorded as 0.0%.

`CCCCCCCCCCCCCCCCCCSc1nc(NCCCCCCCCC)nc(NCC2CCN(C)CC2)n1` [S18N9 D10]: the “Absolute DNA transfection efficiency” value is 4.5%.

As to `CCCCCCCCCCCCCCCCCCSc1nc(NCCCCCCCCCCC)nc(NCCN(C)C)n1` [S18N11 D1], the “Absolute DNA transfection efficiency” value came out at 3.7%.

As to `CCCCCCCCCCCCCCCCCCSc1nc(NCCCCCCCCCCC)nc(NCCN2CCOCC2)n1` [S18N11 D2], the “Absolute DNA transfection efficiency” value is 1.4%.

Turning to `CCCCCCCCCCCCCCCCCCSc1nc(NCCCCCCCCCCC)nc(NCCN2CCCC2)n1` [S18N11 D3], the “Absolute DNA transfection efficiency” value worked out at 4.2%.

Regarding `CCCCCCCCCCCCCCCCCCSc1nc(NCCCCCCCCCCC)nc(NCCN2CCCCC2)n1` [S18N11 D4], the “Absolute DNA transfection efficiency” value is 10.1%.

Consider `CCCCCCCCCCCCCCCCCCSc1nc(NCCCCCCCCCCC)nc(NCCN2CCN(C)CC2)n1` [S18N11 D5], for which the “Absolute DNA transfection efficiency” value was 6.3%.

Regarding `CCCCCCCCCCCCCCCCCCSc1nc(NCCCCCCCCCCC)nc(NCCCN(C)C)n1` [S18N11 D6], the “Absolute DNA transfection efficiency” value is on record as 5.2%.

For the molecule `CCCCCCCCCCCCCCCCCCSc1nc(NCCCCCCCCCCC)nc(NCCN(CC)CC)n1` [S18N11 D7], the “Absolute DNA transfection efficiency” value is reported as 2.7%.

Turning to `CCCCCCCCCCCCCCCCCCSc1nc(NCCCCCCCCCCC)nc(NCCCN2CCOCC2)n1` [S18N11 D8], the “Absolute DNA transfection efficiency” value was 1.3%.

Turning to `CCCCCCCCCCCCCCCCCCSc1nc(NCCCCCCCCCCC)nc(NCCCN2CCN(C)CC2)n1` [S18N11 D9], the “Absolute DNA transfection efficiency” value turned out to be 2.9%.

As to `CCCCCCCCCCCCCCCCCCSc1nc(NCCCCCCCCCCC)nc(NCC2CCN(C)CC2)n1` [S18N11 D10], the “Absolute DNA transfection efficiency” value is 2.7%.

For the molecule `CCCCCCCCCCCCCCCCCCSc1nc(NCCCCCCCCCCCC)nc(NCCN(C)C)n1` [S18N12 D1], the “Absolute DNA transfection efficiency” value was 1.3%.

In the case of `CCCCCCCCCCCCCCCCCCSc1nc(NCCCCCCCCCCCC)nc(NCCN2CCOCC2)n1` [S18N12 D2], the “Absolute DNA transfection efficiency” value was 0.7%.

Consider `CCCCCCCCCCCCCCCCCCSc1nc(NCCCCCCCCCCCC)nc(NCCN2CCCC2)n1` [S18N12 D3], for which the “Absolute DNA transfection efficiency” value was 1.8%.

On to `CCCCCCCCCCCCCCCCCCSc1nc(NCCCCCCCCCCCC)nc(NCCN2CCCCC2)n1` [S18N12 D4], for which the “Absolute DNA transfection efficiency” value is given as 0.3%.

Consider `CCCCCCCCCCCCCCCCCCSc1nc(NCCCCCCCCCCCC)nc(NCCN2CCN(C)CC2)n1` [S18N12 D5], for which the “Absolute DNA transfection efficiency” value amounted to 1.0%.

On to `CCCCCCCCCCCCCCCCCCSc1nc(NCCCCCCCCCCCC)nc(NCCCN(C)C)n1` [S18N12 D6], for which the “Absolute DNA transfection efficiency” value was determined as 0.5%.

For `CCCCCCCCCCCCCCCCCCSc1nc(NCCCCCCCCCCCC)nc(NCCN(CC)CC)n1` [S18N12 D7], the “Absolute DNA transfection efficiency” value came to 0.5%.

As to `CCCCCCCCCCCCCCCCCCSc1nc(NCCCCCCCCCCCC)nc(NCCCN2CCOCC2)n1` [S18N12 D8], the “Absolute DNA transfection efficiency” value came to 0.0%.

In the case of `CCCCCCCCCCCCCCCCCCSc1nc(NCCCCCCCCCCCC)nc(NCCCN2CCN(C)CC2)n1` [S18N12 D9], the “Absolute DNA transfection efficiency” value is 0.0%.

For the molecule `CCCCCCCCCCCCCCCCCCSc1nc(NCCCCCCCCCCCC)nc(NCC2CCN(C)CC2)n1` [S18N12 D10], the “Absolute DNA transfection efficiency” value was 5.3%.

With `CCCCCCCCCCCCCCCCCCSc1nc(NCCCCCCCCCCCCC)nc(NCCN(C)C)n1` [S18N13 D1], the “Absolute DNA transfection efficiency” value turned out to be 1.3%.

In the case of `CCCCCCCCCCCCCCCCCCSc1nc(NCCCCCCCCCCCCC)nc(NCCN2CCOCC2)n1` [S18N13 D2], the “Absolute DNA transfection efficiency” value was 0.0%.

Take `CCCCCCCCCCCCCCCCCCSc1nc(NCCCCCCCCCCCCC)nc(NCCN2CCCC2)n1` [S18N13 D3]: the “Absolute DNA transfection efficiency” value turned out to be 2.8%.

Turning to `CCCCCCCCCCCCCCCCCCSc1nc(NCCCCCCCCCCCCC)nc(NCCN2CCCCC2)n1` [S18N13 D4], the “Absolute DNA transfection efficiency” value is 0.0%.
